Where two headings read alike, the source gives them in different places.
Tests used:
Drosophila OR49b = biological target: T1, Drosophila OR49b (Drosophila melanogaster, UniProt Q9V6H2); test: cell-based; conditions: for OR49b response (VUAA1-normalized) at 1 μM / OR49b response (VUAA1-normalized) at 10 μM / OR49b response (VUAA1-normalized) at 100 μM / Average response: OR49b cell line; for Average response: mean of biological replicates; for activation at 1 µM / activation at 10 µM / activation at 100 µM: HEK293
T1 construct: expressed in transfected cells
T1 sequence (Q9V6H2 1-375): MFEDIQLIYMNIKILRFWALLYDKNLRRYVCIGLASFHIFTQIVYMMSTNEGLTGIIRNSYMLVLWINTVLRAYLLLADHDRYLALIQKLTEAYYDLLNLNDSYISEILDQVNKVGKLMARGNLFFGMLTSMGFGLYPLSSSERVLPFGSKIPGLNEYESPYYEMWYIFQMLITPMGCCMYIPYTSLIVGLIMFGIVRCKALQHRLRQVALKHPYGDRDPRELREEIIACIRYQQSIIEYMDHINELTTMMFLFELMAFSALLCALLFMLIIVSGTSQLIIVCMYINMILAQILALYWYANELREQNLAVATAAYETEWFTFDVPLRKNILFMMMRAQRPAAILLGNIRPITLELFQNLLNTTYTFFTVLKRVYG
T1 sequence (Q9VNB5 1-486 partner): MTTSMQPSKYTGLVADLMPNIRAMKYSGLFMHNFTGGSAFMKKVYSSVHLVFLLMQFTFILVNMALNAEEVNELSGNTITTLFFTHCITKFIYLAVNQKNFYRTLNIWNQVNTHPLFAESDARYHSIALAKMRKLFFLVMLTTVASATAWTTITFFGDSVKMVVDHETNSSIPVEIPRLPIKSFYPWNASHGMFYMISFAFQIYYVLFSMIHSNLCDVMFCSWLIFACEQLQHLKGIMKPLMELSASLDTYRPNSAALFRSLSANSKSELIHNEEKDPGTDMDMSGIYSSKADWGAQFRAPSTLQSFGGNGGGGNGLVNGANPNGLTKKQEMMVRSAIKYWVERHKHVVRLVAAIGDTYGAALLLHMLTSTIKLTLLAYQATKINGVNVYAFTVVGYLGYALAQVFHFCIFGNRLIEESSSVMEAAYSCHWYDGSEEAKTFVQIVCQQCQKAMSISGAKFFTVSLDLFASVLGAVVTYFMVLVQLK
Outline: (§1)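 HEK293 lines stably expressing each Drosophila OR with GCaMP6, doxycycline-induced (1 μg/mL) 48 or 72 h. Fluorescence recorded 5 s baseline then 30 s after VOC injection at pH 7.3; ΔF=(FMAX−F0)/F0, normalized to 50 µM VUAA1 response per line, triplicate wells averaged; concentration series 0.01–100 μM.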

Drosophila OR71a = biological target: T2, Drosophila OR71a (Drosophila melanogaster, UniProt Q9VUK5); test: Calcium ion fluorescence (GCaMP6) assay, OR71a stable HEK293 cell line; format: cell-based; conditions: for OR71a response (VUAA1-normalized) at 1 μM / OR71a response (VUAA1-normalized) at 10 μM / OR71a response (VUAA1-normalized) at 100 μM / Average response: OR71a cell line; for Average response: VUAA1-normalized response, mean of biological replicates; for activation at 1 µM / activation at 10 µM / activation at 100 µM: HEK293, read-out: OR71a response (VUAA1-normalized response); for OR71a Average response (VUAA1-normalized): 50 μM VUAA1 = 1
T2 construct: expressed in transfected cells
T2 sequence (Q9VUK5 1-378): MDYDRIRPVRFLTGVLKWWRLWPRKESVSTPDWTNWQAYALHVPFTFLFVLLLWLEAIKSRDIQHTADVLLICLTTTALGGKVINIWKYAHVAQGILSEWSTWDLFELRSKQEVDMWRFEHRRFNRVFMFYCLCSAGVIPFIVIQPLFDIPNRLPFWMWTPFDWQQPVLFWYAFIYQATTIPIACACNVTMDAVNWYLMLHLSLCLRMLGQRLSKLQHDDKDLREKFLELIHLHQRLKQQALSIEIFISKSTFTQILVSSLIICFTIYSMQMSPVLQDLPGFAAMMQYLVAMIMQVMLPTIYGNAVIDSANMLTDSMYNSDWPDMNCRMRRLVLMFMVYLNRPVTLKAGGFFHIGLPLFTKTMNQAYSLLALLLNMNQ
T2 sequence (Q9VNB5 1-486 partner): T1 sequence (Q9VNB5 1-486 partner)
Outline: as §1

[1] = ligand concentration 100 (unit not given), 0.05 threshold, values below shown as 0
[2] = 1 μM VOC, 50 μM VUAA1 = 1, read-out: OR49b Average response (VUAA1-normalized)
[3] = 10 μM VOC, 50 μM VUAA1 = 1, read-out: OR49b Average response (VUAA1-normalized)
[4] = 100 μM VOC, 50 μM VUAA1 = 1, read-out: OR49b Average response (VUAA1-normalized)
[5] = ligand concentration 1 (unit not given), threshold 0.05, below shown as 0
[6] = ligand concentration 10 (unit not given), threshold 0.05, below shown as 0
[7] = ligand concentration 100 (unit not given), threshold 0.05, below shown as 0
[8] = VOC concentration 1 μM, read-out: OR49b response (VUAA1-normalized response)
[9] = VOC concentration 10 μM, read-out: OR49b response (VUAA1-normalized response)
[10] = VOC concentration 100 μM, read-out: OR49b response (VUAA1-normalized response)
[11] = concentration 1, normalized fluorescence change, values below 0.05 threshold given as 0
[12] = concentration 10, normalized fluorescence change, values below 0.05 threshold given as 0
[13] = concentration 100, normalized fluorescence change, values below 0.05 threshold given as 0

Row | Structure (SMILES) | OR49b response (VUAA1-normalized) at 1 μM (Drosophila OR49b; VOC concentration 1 μM) | OR49b response (VUAA1-normalized) at 10 μM (Drosophila OR49b; VOC concentration 10 μM) | OR49b response (VUAA1-normalized) at 100 μM (Drosophila OR49b; VOC concentration 100 μM) | Average response (Drosophila OR49b; odorant cc. 1 µM) | Average response (Drosophila OR49b; odorant cc. 10 µM) | Average response (Drosophila OR49b; odorant cc. 100 µM) | OR71a response (VUAA1-normalized) at 1 μM (Drosophila OR71a; VOC concentration 1 μM) | OR71a response (VUAA1-normalized) at 10 μM (Drosophila OR71a; VOC concentration 10 μM) | OR71a response (VUAA1-normalized) at 100 μM (Drosophila OR71a; VOC concentration 100 μM) | Average response (Drosophila OR71a; cc. 1 µM) | Average response (Drosophila OR71a; cc. 10 µM) | Average response (Drosophila OR71a; cc. 100 µM) | activation at 1 µM (Drosophila OR49b; [8]) | activation at 10 µM (Drosophila OR49b; [9]) | activation at 100 µM (Drosophila OR49b; [10]) | activation at 1 µM (Drosophila OR71a) | activation at 10 µM (Drosophila OR71a) | activation at 100 µM (Drosophila OR71a) | DF norm AVERAGE OR71a (Drosophila OR71a; [11]) | DF norm AVERAGE OR71a (Drosophila OR71a; [12]) | further results
1 | CCCCCCCCCCCCCC [tetradecane] | 0.07 | 0.05 | 0.00 | 0.07 | 0.05 | 0.0348 | 0.00 | 0.00 | 0.00 | 0.0218 | 0.0215 | 0.0462 | – | – | – | – | – | – | – | – | DF norm AVERAGE OR49b (Drosophila OR49b; ligand concentration 1 (unit not given), […]): 0.06864; DF norm AVERAGE OR49b (Drosophila OR49b; ligand concentration 10 (unit not given), […]): 0.05202; DF norm AVERAGE OR49b (Drosophila OR49b; [1]): 0; DF norm AVERAGE OR71a (Drosophila OR71a; ligand concentration 1 (unit not given), 0.05 threshold, values below shown as 0): 0; DF norm AVERAGE OR71a (Drosophila OR71a; ligand concentration 10 (unit not given), 0.05 threshold, values below shown as 0): 0; DF norm AVERAGE OR71a (Drosophila OR71a; [1]): 0
2 | Cc1cccc(C)c1 [m-xylene] | 0.00 | 0.00 | 0.27 | 0.00 | 0.0251 | 0.27 | 0.00 | 0.00 | 0.00 | 0.00 | 0.00 | 0.00 | – | – | – | – | – | – | – | – | activation at 1 µM (Drosophila OR49b; [2]): 0%; activation at 10 µM (Drosophila OR49b; [3]): 3%; activation at 100 µM (Drosophila OR49b; [4]): 27%; DF norm AVERAGE OR49b (Drosophila OR49b; [5]): 0; DF norm AVERAGE OR49b (Drosophila OR49b; [6]): 0; DF norm AVERAGE OR49b (Drosophila OR49b; [7]): 0.2713; DF norm AVERAGE OR71a (Drosophila OR71a; [5]): 0; DF norm AVERAGE OR71a (Drosophila OR71a; [6]): 0; DF norm AVERAGE OR71a (Drosophila OR71a; [7]): 0
3 | CC1=CCC2CC1C2(C)C (stereo not drawn) [alpha-pinene] | – | – | – | 0.0281 | 0.00 | 0.00 | – | – | – | 0.0368 | 0.00 | 0.00 | 0% | 0% | 0% | 0% | 0% | 0% | – | – | DF norm AVERAGE OR49b (Drosophila OR49b; [5]): 0; DF norm AVERAGE OR49b (Drosophila OR49b; [6]): 0; DF norm AVERAGE OR49b (Drosophila OR49b; [7]): 0; DF norm AVERAGE OR71a (Drosophila OR71a; [5]): 0; DF norm AVERAGE OR71a (Drosophila OR71a; [6]): 0; DF norm AVERAGE OR71a (Drosophila OR71a; [7]): 0
4 | CCCCCCCO [1-heptanol] | – | – | – | 0.00 | 0.00 | 0.06 | – | – | – | 0.00 | 0.00 | 0.00 | 0% | 0% | 6% | 0% | 0% | 0% | 0 | 0 | DF norm AVERAGE OR71a (Drosophila OR71a; [13]): 0
5 | CCCOC(C)=O [propyl acetate] | 0.00 | 0.00 | 0.00 | 0.00 | 0.00 | 0.014 | 0.00 | 0.00 | 0.00 | 0.0434 | 0.025 | 0.00 | – | – | – | – | – | – | – | – | DF norm AVERAGE OR49b (Drosophila OR49b; [5]): 0; DF norm AVERAGE OR49b (Drosophila OR49b; [6]): 0; DF norm AVERAGE OR49b (Drosophila OR49b; [7]): 0; DF norm AVERAGE OR71a (Drosophila OR71a; [5]): 0; DF norm AVERAGE OR71a (Drosophila OR71a; [6]): 0; DF norm AVERAGE OR71a (Drosophila OR71a; [7]): 0
6 | C=C1[C@H]2CC[C@@H]3[C@H]2C(C)(C)CCC[C@]13C [(+)-longifolene] | – | – | – | 0.08 | 0.00 | 0.00 | – | – | – | 0.00 | 0.03 | 0.0431 | – | – | – | – | – | – | 0 | 0 | OR49b response (VUAA1-normalized response) (Drosophila OR49b; VOC concentration 1 μM): 0.08; OR49b response (VUAA1-normalized response) (Drosophila OR49b; VOC concentration 10 μM): 0.00; OR49b response (VUAA1-normalized response) (Drosophila OR49b; VOC concentration 100 μM): 0.00; OR71a response (VUAA1-normalized response) (Drosophila OR71a; VOC concentration 1 μM): 0.00; OR71a response (VUAA1-normalized response) (Drosophila OR71a; VOC concentration 10 μM): 0.00; OR71a response (VUAA1-normalized response) (Drosophila OR71a; VOC concentration 100 μM): 0.00; DF norm AVERAGE OR71a (Drosophila OR71a; [13]): 0
7 | CC/C=C\CCO [Z-3-hexenol] | 0.00 | 0.00 | 0.00 | – | – | – | 0.00 | 0.00 | 0.00 | – | – | – | – | – | – | – | – | – | – | – | –
8 | Cc1ccc(C)c(C)c1 [1,2,4-trimethylbenzene] | – | – | – | 0.00 | 0.00 | 0.20 | – | – | – | 0.00 | 0.00 | 0.00 | 0% | 0% | 20% | 0% | 0% | 0% | 0 | 0 | activation at 1 µM (Drosophila OR49b; [2]): 0%; activation at 10 µM (Drosophila OR49b; [3]): 0%; activation at 100 µM (Drosophila OR49b; [4]): 20%; DF norm AVERAGE OR71a (Drosophila OR71a; [13]): 0
9 | CCCCCC(C)O (stereo not drawn) [2-heptanol] | – | – | – | 0.00 | 0.00 | 0.0651 | – | – | – | 0.00 | 0.04 | 0.16 | 0% | 0% | 6.51% | 0% | 0% | 16% | 0 | 0 | OR71a Average response (VUAA1-normalized) (Drosophila OR71a; 1 μM VOC): 0.00; OR71a Average response (VUAA1-normalized) (Drosophila OR71a; 10 μM VOC): 0.04; OR71a Average response (VUAA1-normalized) (Drosophila OR71a; 100 μM VOC): 0.16; DF norm AVERAGE OR71a (Drosophila OR71a; [13]): 0.1631
10 | CC/C=C\CCOC(C)=O [Z-3-hexenyl acetate] | 0.00 | 0.00 | 0.00 | – | – | – | 0.00 | 0.00 | 0.00 | – | – | – | – | – | – | – | – | – | – | – | –
